Source: patent US20050014830A1 (priority 2003, published 2005)
Read-outs that look alike come from different tables or passages of the source.

How the values were obtained:
[1] = system: SARS virus; design: species or system SARS virus (coronavirus)
[2] = system: enterovirus
[3] = system: Serratia bacterium; design: species or system Serratia species

## O=C(O)CCCCCCCO [8-hydroxyoctanoic acid]
[1]; FIG. 9B, a few minutes after treatment
  conformation of the SARS virion (AFM picture): disruption
[1]; FIG. 9C, a few more minutes into treatment
  conformation of the SARS virion (AFM picture): collapsed further more
[1]; FIG. 9D, final stage of treatment
  conformation of the SARS virion (AFM picture): completely killed
[2]
  AFM height of the enterovirus virion after treatment: about 1,300 nm
[3]
  surface roughness of the bacterium measured by AFM: increased
